From publication PMC12470129, “New Derivatives of 2-(Cyclohexylamino)thiazol-4(5H)-one as Strong Inhibitors of 11β-Hydroxysteroid Dehydrogenase Type 1: Synthesis, Antiproliferative and Redox-Modulating Activity” (International Journal of Molecular Sciences, 2025)
“Also recorded” adds a separate entry of the source.

system: Caco-2 cells; assay: MTS assay, Caco-2; format: cell-based, human; settings: Caco-2, 72 h, strongest effects
Method: (§1) Human fibroblast (BJ; Cat# CRL-2522), human pancreatic cancer (PANC-1; Cat# CRL-1469), human breast cancer (MDA-MB-231; Cat# HTB-26); human brain glioma cells (U-118 MG; Cat# HTB-15), human melanoma (SK-MEL-30; Cat# ACC 151) and human colon carcinoma (Caco-2; Cat# HTB-37) were purchased from ATCC (Manassas, VA, USA) or DSMZ (Braunschweig, Germany). The cell lines were routinely maintained in the medium recommended by the manufacturer—MEM, DMEM, or RPMI (Corning, New York, NY, USA) with L-glutamine, 4.5 g/L glucose, and sodium pyruvate and supplemented with 10% FBS for BJ, PANC-1, MDA-MB-231, U-118 MG, and SK-MEL-30 or 20% FBS for Caco-2. All cell lines were cultured in a humidified CO2 incubator at 37 °C. For assays, cells were seeded at a constant density of 5 × 10^3 cells/0.32 cm^2 for Caco-2, PANC-1, MDA-MB-231, U-118 MG, and SK-MEL-30 or 2 × 10^3 cells/0.32 cm^2 for BJ.
(§2) MTS assay was performed as described elsewhere. Cell lines were seeded in a 96-well plate 24 h prior to treatment. Compounds 3a–3i were tested in a 10–500 µM concentration range and treated for 72 h. Next, the MTS solution was added for 3h and incubated at 37 °C. Absorbance was measured at 590 nm and 620 nm wavelengths using a Synergy H1 microplate reader (BioTek Instruments, San Diego, CA, USA).

Compound	cell metabolic activity down-regulated to (MTS)
CC1(C)SC(NC2CCCCC2)=NC1=O [Compound 3e, 2-(Cyclohexylamino)-5,5-dimethylthiazol-4(5H)-one]	30–54%
O=C1N=C(NC2CCCCC2)SC1c1ccc(Br)cc1 (centres unmarked) [Compound 3g, 5-(4-Bromophenyl)-2-(cyclohexylamino)thiazol-4(5H)-one]	30–54%
CCC1SC(NC2CCCCC2)=NC1=O (centres unmarked) [Compound 3b, 2-(Cyclohexylamino)-5-ethylthiazol-4(5H)-one]	30–54%
O=C1N=C(NC2CCCCC2)SC12CCCCC2 [Compound 3h, 2-(Cyclohexylamino)-1-thia-3-azaspiro [4.5]dec-2-en-4-one]	30–54%

same assay, conditions: Caco-2, MTS, 72 h

Compound	concentration at which a decrease in cell viability is observed
CC1(C)SC(NC2CCCCC2)=NC1=O [Compound 3e, 2-(Cyclohexylamino)-5,5-dimethylthiazol-4(5H)-one]	above 200 µM
O=C1N=C(NC2CCCCC2)SC1c1ccc(Br)cc1 (centres unmarked) [Compound 3g, 5-(4-Bromophenyl)-2-(cyclohexylamino)thiazol-4(5H)-one]	1 µM
CCC1SC(NC2CCCCC2)=NC1=O (centres unmarked) [Compound 3b, 2-(Cyclohexylamino)-5-ethylthiazol-4(5H)-one]	above 200 µM

same assay, conditions: Caco-2, MTS, 72 h, 10–500 µM

Compound	change of cell viability / metabolic activity
O=C1N=C(NC2CCCCC2)SC1c1ccc(Br)cc1 (centres unmarked) [Compound 3g, 5-(4-Bromophenyl)-2-(cyclohexylamino)thiazol-4(5H)-one]	vigorous inhibitory activity

system: SK-MEL-30 cells; assay: Intracellular redox homeostasis (ROS, RNS, GSH), SK-MEL-30; format: cell-based, human; settings: SK-MEL-30, 500 µM, 72 h
Method: as §1
(§3) Based on the MTS assay, a toxic concentration of 500 µM of each compound was selected for redox analysis for all cell lines. Cell lines were seeded at the standard density in 96-well black plates. […] The signal measurement was taken with a Synergy H1 microplate reader (BioTek Instruments, CA, USA).

Compound	ROS level
CCC1SC(NC2CCCCC2)=NC1=O (centres unmarked) [Compound 3b, 2-(Cyclohexylamino)-5-ethylthiazol-4(5H)-one]	increase in ROS production

system: SK-MEL-30 cells; assay: MTS assay, SK-MEL-30; format: cell-based, human; settings: SK-MEL-30, 72 h, strongest effects
Method: as §1, §2

Compound	cell metabolic activity down-regulated to (MTS)
O=C1N=C(NC2CCCCC2)SC1c1ccc(Br)cc1 (centres unmarked) [Compound 3g, 5-(4-Bromophenyl)-2-(cyclohexylamino)thiazol-4(5H)-one]	30–54%

same assay, conditions: SK-MEL-30, MTS, 72 h, 10–500 µM

Compound	change of cell viability / metabolic activity
O=C1N=C(NC2CCCCC2)SC1c1ccc(Br)cc1 (centres unmarked) [Compound 3g, 5-(4-Bromophenyl)-2-(cyclohexylamino)thiazol-4(5H)-one]	vigorous inhibitory activity

system: U-118 MG cells; assay: MTS assay, U-118 MG; format: cell-based, human; settings: 72 h
Method: as §1, §2

Compound	highest increase in proliferation (metabolic activity, MTS)
O=C1N=C(NC2CCCCC2)SC1c1ccc(Br)cc1 (centres unmarked) [Compound 3g, 5-(4-Bromophenyl)-2-(cyclohexylamino)thiazol-4(5H)-one]	115–134%

system: Caco-2 cells; assay: Intracellular redox homeostasis (ROS, RNS, GSH), Caco-2; format: cell-based, human; settings: Caco-2, 500 µM, 72 h
Method: as §1, §3

Compound	ROS level
CCC1SC(NC2CCCCC2)=NC1=O (centres unmarked) [Compound 3b, 2-(Cyclohexylamino)-5-ethylthiazol-4(5H)-one]	increase in ROS production

target: T1, 11β-HSD2 (Homo sapiens, UniProt P80365); assay: 11β-HSD2 inhibition assay (cortisol to cortisone, human kidney microsomes, cortisol ELISA); format: biochemical; settings: at a concentration of 10 µM
T1 construct: human kidney microsomes were used as a source of the 11β‐HSD2 enzyme; tissue XenoTech Lot No. 1710160; host or cells: human kidney microsomes, mixed gender
T1 sequence (P80365 1-405): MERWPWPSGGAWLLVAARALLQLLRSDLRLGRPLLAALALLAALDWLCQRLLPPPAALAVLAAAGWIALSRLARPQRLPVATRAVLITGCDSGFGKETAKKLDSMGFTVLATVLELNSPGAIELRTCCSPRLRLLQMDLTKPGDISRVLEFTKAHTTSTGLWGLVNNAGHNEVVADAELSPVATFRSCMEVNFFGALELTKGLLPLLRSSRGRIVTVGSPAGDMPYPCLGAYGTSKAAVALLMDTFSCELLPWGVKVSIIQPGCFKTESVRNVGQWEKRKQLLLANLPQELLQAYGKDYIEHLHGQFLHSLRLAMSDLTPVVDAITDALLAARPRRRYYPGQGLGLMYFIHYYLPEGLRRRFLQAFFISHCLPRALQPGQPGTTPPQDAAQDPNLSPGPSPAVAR
Method: 11β-Hydroxysteroid dehydrogenase type 1 and type 2 inhibition assays were performed as previously described. For more details, see the Supplementary Materials. […]
(§4) Solvents and reagents: 18‐beta‐glycyrrhetinic acid – (Acros Organic, Geel, Belgium), cortisone, NAD cofactor, phosphate buffer powder (Sigma‐Aldrich, Poznań, Poland), Human Kidney Microsomes, […]
(§5) ‐ (DiaMetra, Spello, Italy), Enzyme‐Linked Immunosorbent Assay (ELISA) Kit for 11‐Beta‐ Hydroxysteroid Dehydrogenase Type 2 Lot No. L191113457 ‐ (Cloud‐Clone Corp., Wuhan, China), PBS Lot No. H161008 (Pan Biotech, Aidenbach, Germany). […]
(§6) kidney microsomes were used as a source of the 11β‐HSD2 enzyme. Standard 96‐well microplates were filled with a reagent mixture: cortisol/NAD+ (20 μL, to obtain a final concentration of 200 nM / 2 μM), […]
(§7) The resulting solution (final volume of 100 μL) was incubated for 2.5 h at 37°C. […]
(§8) levels were measured using a commercially available ELISA kit.
(§9) 1.3. Determination of IC50 […]
(§10) conditions described in the sections above. Analogous assays without added inhibitors were performed as controls. The IC₅₀ value, defined as the concentration of inhibitor causing a 50% reduction in cortisol or cortisone, was read directly from the graph.

Compound	inhibition at 10 µM [%]
CC1(C)SC(NC2CCCCC2)=NC1=O [Compound 3e, 2-(Cyclohexylamino)-5,5-dimethylthiazol-4(5H)-one]	38.6 ± 5.56
O=C1N=C(NC2CCCCC2)SC1c1ccc(Br)cc1 (centres unmarked) [Compound 3g, 5-(4-Bromophenyl)-2-(cyclohexylamino)thiazol-4(5H)-one]	47.2 ± 1.17
CCC1SC(NC2CCCCC2)=NC1=O (centres unmarked) [Compound 3b, 2-(Cyclohexylamino)-5-ethylthiazol-4(5H)-one]	38.3 ± 9.96
O=C1N=C(NC2CCCCC2)SC12CCCCC2 [Compound 3h, 2-(Cyclohexylamino)-1-thia-3-azaspiro [4.5]dec-2-en-4-one]	45.6 ± 5.28

system: MDA-MB-231 cells; assay: MTS assay, MDA-MB-231; format: cell-based, human; settings: MDA-MB-231, 72 h, strongest effects
Method: as §1, §2

Compound	cell metabolic activity down-regulated to (MTS)
O=C1N=C(NC2CCCCC2)SC1c1ccc(Br)cc1 (centres unmarked) [Compound 3g, 5-(4-Bromophenyl)-2-(cyclohexylamino)thiazol-4(5H)-one]	30–54%
CCC1SC(NC2CCCCC2)=NC1=O (centres unmarked) [Compound 3b, 2-(Cyclohexylamino)-5-ethylthiazol-4(5H)-one]	30–54%
O=C1N=C(NC2CCCCC2)SC12CCCCC2 [Compound 3h, 2-(Cyclohexylamino)-1-thia-3-azaspiro [4.5]dec-2-en-4-one]	30–54%

same assay, conditions: MDA-MB-231, MTS, 72 h

Compound	concentration at which a decrease in cell viability / metabolic activity is observed [µM]
O=C1N=C(NC2CCCCC2)SC1c1ccc(Br)cc1 (centres unmarked) [Compound 3g, 5-(4-Bromophenyl)-2-(cyclohexylamino)thiazol-4(5H)-one]	75

same assay, conditions: MDA-MB-231, MTS, 72 h, 10–500 µM

Compound	change of cell viability / metabolic activity
O=C1N=C(NC2CCCCC2)SC1c1ccc(Br)cc1 (centres unmarked) [Compound 3g, 5-(4-Bromophenyl)-2-(cyclohexylamino)thiazol-4(5H)-one]	vigorous inhibitory activity

target: T2, 11β-HSD1 (Homo sapiens, UniProt P28845); assay: 11β-HSD1 inhibition assay (cortisone to cortisol, human liver microsomes, cortisol ELISA); format: biochemical; settings: at a concentration of 10 µM; human liver microsomes
T2 construct: human liver microsomes were used as a source of the 11β‐HSD1 enzyme; tissue XenoTech Lot No.1410013; host or cells: pooled human liver microsomes, mixed gender
Method: 11β-Hydroxysteroid dehydrogenase type 1 and type 2 inhibition assays were performed as previously described. For more details, see the Supplementary Materials.
Detailed protocols of enzyme inhibition assays
1. Inhibition of 11β‐HSD Assays […]
tetrasodium salt, phosphate buffer powder, (Sigma‐Aldrich, Poznań, Poland), Pooled human liver microsomes, mixed gender, 1 mL, 20 mg/mL Lot No.1410013 ‐ XenoTech, Cortisol Elisa Ref DkO001 Lot […]
No. L211008799 – (Cloud‐Clone Corp., Wuhan, China), PBS Lot No. H161008 (Pan Biotech, Aidenbach, […]
liver microsomes were used as a source of the 11β‐HSD1 enzyme. Standard 96‐well microplates were filled with a reagent mixture: cortisone/NADPH (20 μ l, to obtain a final concentration of 200 nM / 2 μ M), […]
water. The resulting solution (final volume 100 μ l) was incubated for 2.5 h at 37°C. To stop the reaction, 10 μl of a 100 μM solution of 18β‐glycyrrhetinic acid in PBS was added. Cortisol levels resulting from the reaction were measured using a commercially available ELISA kit.
as §4, §5, §6, §7, §8, §9, §10

T2 sequence (P28845 whole entry): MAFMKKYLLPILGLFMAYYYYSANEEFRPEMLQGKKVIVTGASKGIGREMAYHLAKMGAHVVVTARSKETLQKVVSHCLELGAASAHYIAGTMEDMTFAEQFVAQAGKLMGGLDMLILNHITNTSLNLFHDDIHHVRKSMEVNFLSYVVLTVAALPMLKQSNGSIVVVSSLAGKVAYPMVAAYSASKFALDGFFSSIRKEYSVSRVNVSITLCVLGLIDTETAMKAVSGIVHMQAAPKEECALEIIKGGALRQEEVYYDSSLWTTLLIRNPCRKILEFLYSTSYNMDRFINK

Compound	inhibition at 10 µM [%]
CC1(C)SC(NC2CCCCC2)=NC1=O [Compound 3e, 2-(Cyclohexylamino)-5,5-dimethylthiazol-4(5H)-one]	82.6 ± 1.79
O=C1N=C(NC2CCCCC2)SC1c1ccc(Br)cc1 (centres unmarked) [Compound 3g, 5-(4-Bromophenyl)-2-(cyclohexylamino)thiazol-4(5H)-one]	90.2 ± 1.59
CCC1SC(NC2CCCCC2)=NC1=O (centres unmarked) [Compound 3b, 2-(Cyclohexylamino)-5-ethylthiazol-4(5H)-one]	68.5 ± 4.28
O=C1N=C(NC2CCCCC2)SC12CCCCC2 [Compound 3h, 2-(Cyclohexylamino)-1-thia-3-azaspiro [4.5]dec-2-en-4-one]	94 ± 2.35

same assay, conditions: compared on % inhibition at 10 µM; versus carbenoxolone

Compound	selectivity 11β-HSD1 versus 11β-HSD2
O=C1N=C(NC2CCCCC2)SC1c1ccc(Br)cc1 (centres unmarked) [Compound 3g, 5-(4-Bromophenyl)-2-(cyclohexylamino)thiazol-4(5H)-one]	greater selectivity than the standard compound
O=C1N=C(NC2CCCCC2)SC12CCCCC2 [Compound 3h, 2-(Cyclohexylamino)-1-thia-3-azaspiro [4.5]dec-2-en-4-one]	greater selectivity than the standard compound; also recorded: better activity and selectivity than carbenoxolone

same assay, conditions: human liver microsomes; unit printed in text (b17-b19)

Compound	IC50 [nM]
CC1(C)SC(NC2CCCCC2)=NC1=O [Compound 3e, 2-(Cyclohexylamino)-5,5-dimethylthiazol-4(5H)-one]	300 ± 50
O=C1N=C(NC2CCCCC2)SC1c1ccc(Br)cc1 (centres unmarked) [Compound 3g, 5-(4-Bromophenyl)-2-(cyclohexylamino)thiazol-4(5H)-one]	70 ± 8
CCC1SC(NC2CCCCC2)=NC1=O (centres unmarked) [Compound 3b, 2-(Cyclohexylamino)-5-ethylthiazol-4(5H)-one]	570 ± 60
O=C1N=C(NC2CCCCC2)SC12CCCCC2 [Compound 3h, 2-(Cyclohexylamino)-1-thia-3-azaspiro [4.5]dec-2-en-4-one]	40 ± 4

system: BJ cells; assay: Intracellular redox homeostasis (ROS, RNS, GSH), BJ; format: cell-based, human; settings: 500 µM, 72 h
Method: as §1, §3

Compound	ROS level
O=C1N=C(NC2CCCCC2)SC12CCCCC2 [Compound 3h, 2-(Cyclohexylamino)-1-thia-3-azaspiro [4.5]dec-2-en-4-one]	increase in ROS

system: PANC-1 cells; assay: MTS assay, PANC-1; format: cell-based, human; settings: PANC-1, 72 h
Method: as §1, §2

Compound	highest increase in proliferation (metabolic activity, MTS)
CC1(C)SC(NC2CCCCC2)=NC1=O [Compound 3e, 2-(Cyclohexylamino)-5,5-dimethylthiazol-4(5H)-one]	115–134%
O=C1N=C(NC2CCCCC2)SC12CCCCC2 [Compound 3h, 2-(Cyclohexylamino)-1-thia-3-azaspiro [4.5]dec-2-en-4-one]	115–134%
